Where two headings read alike, the source gives them in different places. Bridge positions count the residues as written; N and C are the ends. Square brackets hold non-standard residues; d marks the D form. Peptide text beside a SMILES is read from it. * marks the point of attachment. X2 = CN1C[C@H](CSCC(=O)*)C[C@@H]2c3cccc4[nH]cc(c34)C[C@H]21; 4Pal = N[C@@H](Cc1ccncc1)C(=O)O
Experiments:
hSSTR1 = target: T1, hSSTR1 (Homo sapiens, UniProt P30872); test: Somatostatin receptor radioligand binding assay (hSSTR1)
T1 construct: expressed in transfected cells; host or cells: CHO-K1 (ATCC), pcDNA3.1, G418-selected clonal line; membranes
T1 sequence (P30872 whole entry): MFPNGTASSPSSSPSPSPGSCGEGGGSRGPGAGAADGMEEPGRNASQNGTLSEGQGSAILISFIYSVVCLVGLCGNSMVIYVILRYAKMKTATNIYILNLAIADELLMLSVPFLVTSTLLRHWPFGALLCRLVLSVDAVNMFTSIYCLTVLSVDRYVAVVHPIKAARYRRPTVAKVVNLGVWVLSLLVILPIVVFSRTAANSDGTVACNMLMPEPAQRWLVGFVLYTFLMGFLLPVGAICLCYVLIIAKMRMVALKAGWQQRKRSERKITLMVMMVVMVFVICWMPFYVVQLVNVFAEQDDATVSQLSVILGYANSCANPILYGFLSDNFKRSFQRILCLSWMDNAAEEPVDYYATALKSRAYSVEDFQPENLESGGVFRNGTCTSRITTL
Protocol: (§5) The affinities of a test compound for the human somatostatin receptors were determined by radioligand binding assays in CHO-K1 cells stably transfected with each of the human somatostatin receptor subtypes, hSSTR1-5. […] Clonal cell lines stably expressing each of the somatostatin receptors were obtained by transfection into CHO-K1 cells (ATCC) and subsequently selected with culture media containing 0.8 mg/mL of G418 (Life Technologies).
(§6) Membranes for in vitro receptor binding assays were obtained by the following procedures. […] The supernatant containing the plasma membranes was centrifuged at 100,000 x g for 30 minutes and the pellet was resuspended in buffer containing 20 mM glycine-glycine, 1 mM MgCl2, 250 mM sucrose, pH 7.2, for storage at -80°C.
(§7) For the SSTR1, 2 and 5 assays, membranes and various concentrations of test compounds were incubated in 96-well plates for 60 minutes at 25°C with 0.05 nM [^125I-Tyr^11]-SRIF-14 (for hSSTR1; PerkinElmer Life Science), 0.05 nM [^125I-Tyr]-seglitide (for hSSTR2; PerkinElmer Life Science) or 0.05 nM [^125I-Tyr]-[DPhe-cyclo(Cys-Tyr-DTrp-Lys-Val-Cys)-Thr-NH2] (for hSSTR5; PerkinElmer Life Science) in 50 mM HEPES, 0.2% BSA, 0.1 mM MgCl2, pH 7.5.

hSSTR2 [1] = target: T2, hSSTR2 (Homo sapiens, UniProt P30874); test: Somatostatin receptor radioligand binding assay (hSSTR2);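 also: radioligand displacement on membranes of CHO-K1 cells stably transfected with human SSTR2, specific binding taken as total minus binding left with 1000 nM SRIF-14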
T2 construct: host or cells: 'Cells expressing hSSTR2'
T2 sequence (P30874 whole entry): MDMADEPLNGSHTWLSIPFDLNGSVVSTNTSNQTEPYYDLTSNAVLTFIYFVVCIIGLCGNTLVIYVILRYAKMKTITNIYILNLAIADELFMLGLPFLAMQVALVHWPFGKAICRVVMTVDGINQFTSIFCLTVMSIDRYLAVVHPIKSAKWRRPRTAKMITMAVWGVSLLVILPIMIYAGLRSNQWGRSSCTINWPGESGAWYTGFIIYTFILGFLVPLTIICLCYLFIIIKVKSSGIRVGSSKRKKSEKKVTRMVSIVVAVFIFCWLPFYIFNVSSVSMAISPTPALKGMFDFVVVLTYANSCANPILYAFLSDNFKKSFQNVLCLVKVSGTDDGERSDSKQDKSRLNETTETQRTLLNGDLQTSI
Protocol: as §5, §6, §7

hSSTR3 = target: T3, hSSTR3 (Homo sapiens, UniProt P32745); test: Somatostatin receptor radioligand binding assay (hSSTR3); settings: CHO-K1 cell membranes; 0.05 nM [125I-Tyr11]-SRIF-14; 60 minutes at 25°C; read-out: hSSTR3 Ki (nM) ± SEM
T3 construct: expressed in transfected cells; host or cells: CHO-K1 (ATCC), pcDNA3.1, G418-selected clonal line; membranes
T3 sequence (P32745 whole entry): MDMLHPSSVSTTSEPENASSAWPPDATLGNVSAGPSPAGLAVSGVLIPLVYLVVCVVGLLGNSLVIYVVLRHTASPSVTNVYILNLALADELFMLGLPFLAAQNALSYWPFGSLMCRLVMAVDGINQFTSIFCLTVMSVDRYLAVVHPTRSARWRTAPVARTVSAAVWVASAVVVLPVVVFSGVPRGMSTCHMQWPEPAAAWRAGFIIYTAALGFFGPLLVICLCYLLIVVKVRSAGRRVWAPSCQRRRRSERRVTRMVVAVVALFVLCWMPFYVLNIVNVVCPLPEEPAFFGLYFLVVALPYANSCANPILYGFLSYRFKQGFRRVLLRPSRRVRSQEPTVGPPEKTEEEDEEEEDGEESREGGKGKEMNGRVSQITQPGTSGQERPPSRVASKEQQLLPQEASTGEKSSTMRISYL
Protocol: (§1) The affinities of a test compound for the human somatostatin receptors were determined by radioligand binding assays in CHO-K1 cells stably transfected with each of the human somatostatin receptor subtypes, hSSTR1-5. The cDNA coding sequences of hSSTR1 (GenBank accession No. NM_001049.1), hSSTR2 (GenBank accession No. XM_012697.1), hSSTR3 (GenBank accession No. XM_009963.1), hSSTR4 (GenBank accession No. NM_001052.1), and hSSTR5 (GenBank accession No. XM_012565.1) were subcloned into the mammalian expression vector pcDNA3.1 (Life Technologies). Clonal cell lines stably expressing each of the somatostatin receptors were obtained by transfection into CHO-K1 cells (ATCC) and subsequently selected with culture media containing 0.8 mg/mL of G418 (Life Technologies).
(§2) Membranes for in vitro receptor binding assays were obtained by the following procedures. CHO-K1 cells expressing one of the somatostatin receptors were homogenized in ice-cold buffer with 10 mM Tris-HCl, 5 mM EDTA, 3 mM EGTA, 1 mM phenylmethylsuphonyl fluoride, pH 7.6, using Polytron PT10-35GT (Kinematica) at 18,000 rpm for 30 seconds and centrifuged at 500 x g for 10 minutes. The supernatant containing the plasma membranes was centrifuged at 100,000 x g for 30 minutes and the pellet was resuspended in buffer containing 20 mM glycine-glycine, 1 mM MgCl2, 250 mM sucrose, pH 7.2, for storage at -80°C.
(§3) For the hSSTR3 and 4 assays, membranes and various concentrations of test compounds were incubated in 96-well plates for 60 minutes at 25°C with 0.05 nM [^125I-Tyr^11]-SRIF-14 (PerkinElmer Life Science) in 50 mM HEPES, 0.2% BSA, 5 mM MgCl2, 200 KIU/mL trasylol, 0.02 mg/mL bacitracin, and 0.02 mg/mL phenylmethylsuphonyl fluoride, pH 7.5.
(§4) The incubations were terminated by rapid filtration through GF/C glass microfiber filter plates (pre-wet with 0.3% polyethyleneimine and 0.1 % BSA) using a 96-well cell harvester (Brandel). Plates were washed six times with 1 mL/well aliquots of ice-cold buffer containing 50 mM Tris buffer, pH 7.7. Specific binding was defined as the total radioligand bound minus the bound in the presence of 1000 nM SRIF-14.

hSSTR4 = target: T4, hSSTR4 (Homo sapiens, UniProt P31391); test: Somatostatin receptor radioligand binding assay (hSSTR4); settings: CHO-K1 cell membranes; 0.05 nM [125I-Tyr11]-SRIF-14; 60 minutes at 25°C; read-out: hSSTR4 Ki (nM) ± SEM
T4 construct: expressed in transfected cells; host or cells: CHO-K1 (ATCC), pcDNA3.1, G418-selected clonal line; membranes
T4 sequence (P31391 whole entry): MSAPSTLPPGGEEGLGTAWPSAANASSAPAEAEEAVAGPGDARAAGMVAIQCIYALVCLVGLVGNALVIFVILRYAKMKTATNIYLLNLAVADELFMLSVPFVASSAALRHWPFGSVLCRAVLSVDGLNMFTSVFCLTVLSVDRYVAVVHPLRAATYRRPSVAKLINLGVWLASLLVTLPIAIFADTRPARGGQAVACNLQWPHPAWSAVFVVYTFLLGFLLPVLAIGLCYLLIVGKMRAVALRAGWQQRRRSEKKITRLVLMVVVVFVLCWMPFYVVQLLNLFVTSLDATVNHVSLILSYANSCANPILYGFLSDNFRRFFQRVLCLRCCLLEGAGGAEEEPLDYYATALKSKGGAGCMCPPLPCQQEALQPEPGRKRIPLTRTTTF
Protocol: as §1, §2, §3, §4

hSSTR5 = target: T5, hSSTR5 (Homo sapiens, UniProt P35346); test: Somatostatin receptor radioligand binding assay (hSSTR5); settings: CHO-K1 cell membranes; 0.05 nM [125I-Tyr]-[DPhe-cyclo(Cys-Tyr-DTrp-Lys-Val-Cys)-Thr-NH2]; 60 minutes at 25°C; read-out: hSSTR5 Ki (nM) ± SEM
T5 construct: expressed in transfected cells; host or cells: CHO-K1 (ATCC), pcDNA3.1, G418-selected clonal line; membranes
T5 sequence (P35346 whole entry): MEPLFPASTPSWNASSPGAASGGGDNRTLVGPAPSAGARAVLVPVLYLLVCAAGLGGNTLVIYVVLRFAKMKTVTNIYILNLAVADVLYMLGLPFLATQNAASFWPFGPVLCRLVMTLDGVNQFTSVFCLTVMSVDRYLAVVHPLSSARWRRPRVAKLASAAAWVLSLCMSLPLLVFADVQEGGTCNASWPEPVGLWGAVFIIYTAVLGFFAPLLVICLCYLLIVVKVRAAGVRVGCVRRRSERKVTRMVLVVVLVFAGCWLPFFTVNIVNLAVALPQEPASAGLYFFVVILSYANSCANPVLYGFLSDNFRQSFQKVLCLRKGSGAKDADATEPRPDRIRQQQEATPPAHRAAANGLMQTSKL
Protocol: as §5, §6, §7

hDRD2 [2] = target: T6, hDRD2 (Homo sapiens, UniProt P14416); test: cell-based; parameters: host or cells: 'Cells expressing hDRD2'; settings: for Emax: read-out: hDRD2 %Emax ± SEM
T6 sequence (P14416 whole entry): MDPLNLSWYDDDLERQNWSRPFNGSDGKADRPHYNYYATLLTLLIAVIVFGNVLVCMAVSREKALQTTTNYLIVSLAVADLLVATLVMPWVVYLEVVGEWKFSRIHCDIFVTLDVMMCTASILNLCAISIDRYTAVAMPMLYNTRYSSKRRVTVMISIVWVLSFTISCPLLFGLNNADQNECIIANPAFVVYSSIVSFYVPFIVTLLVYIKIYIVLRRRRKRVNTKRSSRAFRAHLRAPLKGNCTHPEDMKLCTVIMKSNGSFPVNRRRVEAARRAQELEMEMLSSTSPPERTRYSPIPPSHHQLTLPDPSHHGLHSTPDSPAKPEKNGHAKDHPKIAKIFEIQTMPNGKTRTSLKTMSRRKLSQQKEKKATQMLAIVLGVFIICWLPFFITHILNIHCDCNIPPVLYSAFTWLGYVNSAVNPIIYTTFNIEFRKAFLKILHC

hDRD2 [3] = target: T6, hDRD2; test: biochemical; type: binding; parameters: expressed in transfected cells; host or cells: CHO-K1, pcDNA3.1/GS, zeocin-selected clonal line; membranes
hSSTR2 [4] = target: T2, hSSTR2; test: Intracellular calcium mobilization assay (FLIPR Calcium 4), hSSTR2; type: cell-based; settings: for improvement in EC50 over Reference Compound A: p value (Student's t-test, one-tailed) < 0.05;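 as to all read-outs here: agonist activity measured in cells expressing hSSTR2, seeded in 384-well plates, loaded with Calcium 4 dye, read-out as rise in intracellular calcium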
Protocol: The ability of select compounds according to the present invention to activate hSSTR2 and hDRD2 was determined by the intracellular calcium mobilization assay using FLIPR Calcium 4 assay kit (Molecular Devices).
Cells expressing hSSTR2 or hDRD2 were plated in 384-well microplates in tissue culture media and incubated for 16-24 hours at 37°C in a humidified atmosphere with 5% CO2. Medium was replaced by loading buffer containing Hank's buffered saline, 20 mM HEPES, 2.5 mM probenecid and Calcium 4 dye, and the plates were incubated at 37°C for 60 minutes.

[5] = CHO-K1 cell membranes, 0.05 nM [125I-Tyr11]-SRIF-14, 60 minutes at 25°C, read-out: hSSTR1 Ki (nM) ± SEM
[6] = CHO-K1 cell membranes, 0.05 nM [125I-Tyr]-seglitide, 60 minutes at 25°C, read-out: hSSTR2 Ki (nM) ± SEM
[7] = CHO-K1 cell membranes, […] [3H]-spiperone, 60 minutes at 25°C, read-out: hDRD2 Ki (nM) ± SEM
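For Emax in this document: agonist activity at human DRD2 in DRD2-expressing cells, read as intracellular calcium mobilization with a FLIPR Calcium 4 fluorescent dye.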

SMILES	Ki (hSSTR1) [nM]	Ki (hSSTR2 [1]) [nM]	Ki (hSSTR3) [nM]	Ki (hSSTR4) [nM]	Ki (hSSTR5) [nM]	Emax (hDRD2 [2]) [%]	Ki (hDRD2 [3]) [nM]	Ki (hSSTR1; [5]) [nM]	Ki (hSSTR2 [1]; [6]) [nM]	improvement in %Emax over Reference Compound C (hSSTR2 [4]; receptor not named)	Ki (hDRD2 [3]; [7]) [nM]	EC50 (hSSTR2 [4]) [nM]	improvement in EC50 and/or %Emax over Reference Compound B (hSSTR2 [4]; receptor not named)	EC50 (hDRD2 [2]) [nM]	improvement in EC50 over Reference Compound A (hSSTR2 [4]; receptor not named)	EC50 value lower than that for Reference Compound A (hSSTR2 [4]; ratio to Reference Compound A, receptor not named, figures fit hSSTR2)
CC(=O)N(CCC(=O)NC(CN[C@@H]1CCCCNC(=O)[C@H](Cc2ccc(F)cc2)NC(=O)[C@H]([C@@H](C)O)NC(=O)[C@H](CCCCN)NC(=O)[C@@H](Cc2c[nH]c3ccccc23)NC(=O)[C@H](Cc2ccccc2)NC(=O)[C@H](Cc2ccccc2)NC(=O)[C@H](CCCNC(=N)N)NC1=O)Cc1ccc(O)cc1)C[C@@H]1C[C@@H]2c3cccc4[nH]cc(c34)C[C@H]2N(C)C1 (single isomer, unassigned) [Compound 27, 3-[N-acetyl-N-(D-6-methyl-8β-ergolinylmethyl)]-aminopropionyl-Tyr-psi(CH2NH)-cyclo(DLys-Arg-Phe-Phe-DTrp-Lys-Thr-4FPhe)]	24.4 ± 12	0.32 ± 0.04	0.9 ± 0.1	7.3 ± 1.3	0.53 ± 0.1	86.3 ± 8	277 ± 55.5									
C[C@@H](O)[C@@H]1NC(=O)[C@H](CCCCN)NC(=O)[C@@H](Cc2c[nH]c3ccccc23)NC(=O)[C@H](Cc2ccncc2)NC(=O)[C@H](Cc2ccccc2)NC(=O)[C@H](CCCNC(=N)N)NC(=O)[C@H](NC[C@H](CCCCNC(=O)CSC[C@@H]2C[C@@H]3c4cccc5[nH]cc(c45)C[C@H]3N(C)C2)NC(=O)CSC[C@@H]2C[C@@H]3c4cccc5[nH]cc(c45)C[C@H]3N(C)C2)CCCCNC(=O)[C@H](Cc2ccc(O)cc2)NC1=O [Compound 8, Dop1-Lys(Dop1)-psi(CH2NH)-cyclo(DLys-Arg-Phe-4Pal-DTrp-Lys-Thr-Tyr)]			7.5 ± 0.3	60.7 ± 15.7	1.49 ± 0.3	94.7 ± 0.8		106 ± 7.9	0.21 ± 0.08	statistically significant improvement in %Emax	113 ± 35					
C[C@@H](O)[C@@H]1NC(=O)[C@H](CCCCN)NC(=O)[C@@H](Cc2c[nH]c3ccccc23)NC(=O)[C@H](Cc2ccccc2)NC(=O)[C@H](Cc2ccccc2)NC(=O)[C@H](CCCNC(=N)N)NC(=O)[C@H](NC[C@H](Cc2ccc(O)cc2)NC(=O)CSC[C@@H]2C[C@@H]3c4cccc5[nH]cc(c45)C[C@H]3N(C)C2)CCCCNC(=O)[C@H](Cc2ccccc2)NC1=O [Compound 32, Dop1-Tyr-psi(CH2NH)-cyclo(DLys-Arg-Phe-Phe-DTrp-Lys-Thr-Phe)]	5.3 ± 2.9	0.28 ± 0.07			1.58	102 ± 12.8	44 ± 1					13.6 ± 3.4	statistically significant improvement in EC50 and/or %Emax	35.6 ± 2.4		
C[C@@H](O)[C@@H]1NC(=O)[C@H](CCCCN)NC(=O)[C@@H](Cc2c[nH]c3ccccc23)NC(=O)[C@H](Cc2ccccc2)NC(=O)[C@H](Cc2ccccc2)NC(=O)[C@H](CCCNC(=N)N)NC(=O)[C@H](NCCS(=O)(=O)C[C@@H]2C[C@@H]3c4cccc5[nH]cc(c45)C[C@H]3N(C)C2)CCCCNC(=O)[C@H](Cc2ccc(F)cc2)NC1=O [Compound 10, Dop1(SO2)-psi(CH2NH)-cyclo(DLys-Arg-Phe-Phe-DTrp-Lys-Thr-4FPhe)]	6.6	0.17 ± 0.05			0.16 ± 0.1	92.8 ± 4	56.4 ± 11.2					19.4 ± 2		24 ± 4.5		
C[C@@H](O)[C@@H]1NC(=O)[C@H](CCCCN)NC(=O)[C@@H](Cc2c[nH]c3ccccc23)NC(=O)[C@H](Cc2ccccc2)NC(=O)[C@H](Cc2ccccc2)NC(=O)[C@H](CCCNC(=N)N)NC(=O)[C@H](NC[C@H](Cc2ccc(O)cc2)NC(=O)CSC[C@@H]2C[C@@H]3c4cccc5[nH]cc(c45)C[C@H]3N(C)C2)CCCCNC(=O)[C@H](Cc2ccc(O)cc2)NC1=O [Compound 33, Dop1-Tyr-psi(CH2NH)-cyclo(DLys-Arg-Phe-Phe-DTrp-Lys-Thr-Tyr)]	10.4 ± 3.2	0.24 ± 0.1			0.82 ± 0.4	102 ± 12.5	15 ± 2.6					13.8 ± 5	statistically significant improvement in EC50 and/or %Emax	51.8 ± 20.6		
C[C@@H](O)[C@@H]1NC(=O)[C@H](CCCCN)NC(=O)[C@@H](Cc2c[nH]c3ccccc23)NC(=O)[C@H](Cc2ccncc2)NC(=O)[C@H](Cc2ccccc2)NC(=O)[C@H](CCCNC(=N)N)NC(=O)[C@H](NC(=O)CSC[C@@H]2C[C@@H]3c4cccc5[nH]cc(c45)C[C@H]3N(C)C2)CCCCNC(=O)[C@H](Cc2ccc(O)cc2)NC1=O [Compound 25, Dop1-cyclo(DLys-Arg-Phe-4Pal-DTrp-Lys-Thr-Tyr)] (X2-[dK]RF[4Pal][dW]KTY; lactam 1-C)	41.9 ± 17.6	0.05 ± 0.01			0.95 ± 0.1	82.5 ± 7.6	272 ± 119					3.4 ± 1		27 ± 3.3	statistically significant improvement in EC50	
C[C@@H](O)[C@@H]1NC(=O)[C@H](CCCCN)NC(=O)[C@@H](Cc2c[nH]c3ccccc23)NC(=O)[C@H](Cc2ccccc2)NC(=O)[C@H](Cc2ccccc2)NC(=O)[C@H](CCCNC(=N)N)NC(=O)[C@H](NC[C@H](Cc2ccc(O)cc2)NC(=O)C[S+]([O-])C[C@@H]2C[C@@H]3c4cccc5[nH]cc(c45)C[C@H]3N(C)C2)CCCCNC(=O)[C@H](Cc2ccc(F)cc2)NC1=O (stereo partly drawn) [Compound 13, Dop1(SO)-Tyr-psi(CH2NH)-cyclo(DLys-Arg-Phe-Phe-DTrp-Lys-Thr-4FPhe)]	8.6	0.04 ± 0.02			0.23	93.9 ± 4.5	32.5 ± 8.9					1.6 ± 0.1		9.2 ± 2.7		
C[C@@H](O)[C@@H]1NC(=O)[C@H](CCCCN)NC(=O)[C@@H](Cc2c[nH]c3ccccc23)NC(=O)[C@H](Cc2ccncc2)NC(=O)[C@H](Cc2ccccc2)NC(=O)[C@H](CCCNC(=N)N)NC(=O)[C@H](NCC[S@@+]([O-])C[C@@H]2C[C@@H]3c4cccc5[nH]cc(c45)C[C@H]3N(C)C2)CCCCNC(=O)[C@H](Cc2ccc(O)cc2)NC1=O [Compound 12, Dop1[(S)SO]-psi(CH2NH)-cyclo(DLys-Arg-Phe-4Pal-DTrp-Lys-Thr-Tyr)]	98.9 ± 2.3	0.06 ± 0.01			0.74 ± 0.4	99.8 ± 6	255 ± 224					4.1 ± 1.4		76.3 ± 28.2		
C[C@@H](O)[C@@H]1NC(=O)[C@H](CCCCN)NC(=O)[C@@H](Cc2c[nH]c3ccccc23)NC(=O)[C@H](Cc2ccncc2)NC(=O)[C@H](Cc2ccccc2)NC(=O)[C@H](CCCNC(=N)N)NC(=O)[C@H](NC(=O)CSC[C@@H]2C[C@@H]3c4cccc5[nH]cc(c45)C[C@H]3N(C)C2)CCCCNC(=O)[C@H](Cc2ccccc2)NC1=O [Compound 24, Dop1-cyclo(DLys-Arg-Phe-4Pal-DTrp-Lys-Thr-Phe)] (X2-[dK]RF[4Pal][dW]KTF; lactam 1-C)					2.39	87.8 ± 4		47.7 ± 30.7	0.08 ± 0.01		175 ± 25.6				statistically significant improvement in EC50	about 9 fold
